In the test the target is T1, Zcchc11 enzyme (Homo sapiens, UniProt Q5TAX3).
T1 construct: made in house; host or cells: HEK293 cells (Zcchc11); E. coli Rosetta II (LIN28A)
T1 sequence (Q5TAX3 212-1420): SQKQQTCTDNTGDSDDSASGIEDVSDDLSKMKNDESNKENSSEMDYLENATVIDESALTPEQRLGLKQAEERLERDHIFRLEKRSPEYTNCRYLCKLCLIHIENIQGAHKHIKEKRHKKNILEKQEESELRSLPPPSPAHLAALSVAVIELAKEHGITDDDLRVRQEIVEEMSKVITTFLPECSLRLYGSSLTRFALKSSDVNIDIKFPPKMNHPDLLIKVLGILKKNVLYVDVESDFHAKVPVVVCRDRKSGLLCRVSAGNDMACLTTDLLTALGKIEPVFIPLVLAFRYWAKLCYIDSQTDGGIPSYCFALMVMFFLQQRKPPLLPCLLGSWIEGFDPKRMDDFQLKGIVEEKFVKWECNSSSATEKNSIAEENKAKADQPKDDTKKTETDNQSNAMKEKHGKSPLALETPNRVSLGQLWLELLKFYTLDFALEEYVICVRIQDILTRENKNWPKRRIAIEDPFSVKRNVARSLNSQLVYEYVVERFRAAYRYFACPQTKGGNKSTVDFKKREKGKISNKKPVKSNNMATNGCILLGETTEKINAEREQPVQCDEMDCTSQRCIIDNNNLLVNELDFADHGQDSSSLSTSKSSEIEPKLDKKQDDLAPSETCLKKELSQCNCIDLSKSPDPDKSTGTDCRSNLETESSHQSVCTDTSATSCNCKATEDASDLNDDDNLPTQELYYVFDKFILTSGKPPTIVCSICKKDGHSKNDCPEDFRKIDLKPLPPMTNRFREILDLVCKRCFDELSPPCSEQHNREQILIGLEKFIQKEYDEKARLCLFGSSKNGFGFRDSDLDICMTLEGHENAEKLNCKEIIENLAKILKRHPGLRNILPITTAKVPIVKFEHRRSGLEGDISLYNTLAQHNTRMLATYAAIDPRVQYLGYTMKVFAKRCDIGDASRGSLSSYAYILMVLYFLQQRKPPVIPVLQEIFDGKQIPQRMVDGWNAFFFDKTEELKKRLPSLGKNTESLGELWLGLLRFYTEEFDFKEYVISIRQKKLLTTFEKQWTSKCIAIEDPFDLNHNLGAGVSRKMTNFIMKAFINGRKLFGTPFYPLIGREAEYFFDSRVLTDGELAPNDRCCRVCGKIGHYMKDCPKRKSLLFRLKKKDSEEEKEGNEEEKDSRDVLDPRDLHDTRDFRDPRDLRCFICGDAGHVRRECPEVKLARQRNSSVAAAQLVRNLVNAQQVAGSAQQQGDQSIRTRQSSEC
Briefly: TUTase assay (Zcchc11 assay, Lin28a-dependent polyuridylation of pre-let-7). Format: biochemical. Particulars: Lin28a-dependent Zcchc11 (Z11) TUTase activity; read-out: Potency Lin28a-dep Z11 IC50. As to the method: The purpose of the Zcchc11 assay is to determine compound potency against Zcchc11 enzyme through the measurement of IC50. Compound inhibition is measured as a function of polyuridine tails added to RNA substrates in the presence of active TUTase, UTP, and inhibitor. The Zcchc11 assay was done in a black, non-binding, 384 well plate (Corning #3575). All steps were performed at room temperature. For a typical assay, a 29 ul aliquot of assay buffer (50 mM HEPES pH 7.3, 150 mM KCl, 5 mM MgCl2, 10 mM DTT, 0.01% Triton X-100, 40 U/ml RNAsin (Promega)) containing LIN28A protein (final concentration: 10 nM) is added to each well. Next, 1 ul of compound in 100% DMSO is transferred from a compound dilution plate in which the compound is serially diluted. Next, 10 ul of a 5× mix of Zcchc11 and RNA substrate (5′-fluorescein labeled pre-let-7 miRNA (Dharmacon)) is added (final concentrations: 0.2 nM and 2 nM, respectively). The plate is placed on a plate shaker for 30 seconds to produce mixing, then incubated for 30 minutes. Next, 10 ul of a 5× mix of UTP and the quenching probe (3′-rhodamine labeled A20, polyadenosine nucleotide, (IDT)) is added (final concentrations: 5 uM and 4 nM, respectively). The plate is immediately placed in a Biotek Cytation 5 plate reader, and the time-dependent decrease in fluorescein fluorescence resulting from annealing of the A20 probe to polyuridine tails is recorded, using the kinetics mode of the reader. Reaction rates are obtained using linear fits to the early portion of progress curves. IC50 values are calculated using a four parameter fit with 100% enzyme activity determined from the DMSO control and 0% activity from control samples lacking UTP.
The LIN28A protein was expressed in and purified from E. coli, strain Rosetta II (Novagen). The entire coding sequence of the human, wild-type protein was cloned into expression vector pMAL (NEB), down-stream from a maltose-binding protein tag. The linker sequence contained a TEV protease cleavage site. The protein was purified from bacterial extracts using an MBP-Trap column (GE Healthcare Life Sciences), followed by tag cleavage and removal of the tag by ion-exchange chromatography. When necessary, contaminating bacterial RNA was removed using the procedure describe by Faehnle C R. et al. (2017) Multi-domain utilization by TUT4 and TUT7 in control of let-7 biogenesis. Nat Struct Mol Biol, 24:658-665.
The Zcchc11 protein was expressed in and purified from HEK293 cells. A truncated protein comprising residues 212-1420 of the human sequence was cloned into expression vector pTT5 (Viva Biotech) down-stream from a maltose-binding protein tag. The linker sequence contained a TEV protease cleavage site, and a FLAG tag was added to the carboxyl terminus of the protein. The protein was purified from cell extracts using an MBP-Trap column (GE Healthcare Life Sciences), followed by tag cleavage and further enrichment of the full length construct using anti-FLAG affinity media (Sigma Aldrich).
“+” represents an IC50 value that is greater than 50 μM; “++” represents an IC50 value that is greater than 10 μM and equal to or less than 50 μM; “+++” represents an IC50 value that is greater than 1 μM and equal to or less than 10 μM; and “++++” represents an IC50 value that is equal to or less than 1 μM.
Consider `O=C(O)c1cn(-c2cnccn2)c2cc(N3CCC[C@@H]3COc3ncccc3F)c(F)cc2c1=O` (racemic) [Compound 174, rac-(R)-6-fluoro-7-(2-(((3-fluoropyridin-2-yl)oxy)methyl)pyrrolidin-1-yl)-4-oxo-1-(pyrazin-2-yl)-1,4-dihydro-quinoline-3-carboxylic acid], for which the IC50 is at most 1000 nM.

In the case of `CN1CC(n2cc(-n3cc(C(=O)O)c(=O)c4cc(Cl)c(N5CCC[C@@H]5COc5ncccc5Cl)cc43)cn2)C1` (racemic) [Compound 175, rac-(R)-6-chloro-7-(2-(((3-chloropyridin-2-yl)oxy)methyl)pyrrolidin-1-yl)-1-(1-(1-methylazetidin-3-yl)-1H-pyrazol-4-yl)-4-oxo-1,4-dihydro-quinoline-3-carboxylic acid], the IC50 was at most 1000 nM.

Take `CN(C(=O)[C@H]1CCCN1c1cc2c(cc1Cl)c(=O)c(C(=O)O)cn2-c1cnccn1)c1ccccn1` (racemic) [Compound 178, rac-(R)-6-chloro-7-(2-(methyl (pyridin-2-yl)carbamoyl)pyrrolidin-1-yl)-4-oxo-1-(pyrazin-2-yl)-1,4-dihydro-quinoline-3-carboxylic acid]: the IC50 is over 50000 nM.

For `Cc1c(-n2cc(C(=O)O)c(=O)c3cc(Cl)c(N4CCC[C@@H]4COc4ncccc4Cl)cc32)cnn1C` (racemic) [Compound 179, rac-(R)-6-chloro-7-(2-(((3-chloropyridin-2-yl)oxy)methyl)pyrrolidin-1-yl)-1-(1,5-dimethyl-1H-pyrazol-4-yl)-4-oxo-1,4-dihydro-quinoline-3-carboxylic acid], the IC50 is at most 1000 nM.

Turning to `Nc1ccc(-n2cc(C(=O)O)c(=O)c3cc(Cl)c(N4CC(c5ccccn5)C[C@@H]4COc4ncccc4Cl)cc32)cn1` (mixture of isomers) [Compound 180, rac-1-(6-aminopyridin-3-yl)-6-chloro-7-((2R)-2-(((3-chloropyridin-2-yl)oxy)methyl)-4-(pyridin-2-yl)pyrrolidin-1-yl)-4-oxo-1,4-dihydro-quinoline-3-carboxylic acid], the IC50 was at most 1000 nM.

On to `O=C(O)c1cn(-c2cnc3c(n2)COC3)c2cc(N3CCC[C@@H]3COc3ncccc3Cl)c(Cl)cc2c1=O` (racemic) [Compound 182, rac-(R)-6-chloro-7-(2-(((3-chloropyridin-2-yl)oxy)methyl)pyrrolidin-1-yl)-1-(5,7-dihydrofuro [3,4-b]pyrazin-2-yl)-4-oxo-1,4-dihydro-quinoline-3-carboxylic acid], for which the IC50 was at most 1000 nM.

`Cn1cc(-n2cc(C(=O)O)c(=O)c3cc(C#N)c(N4CCC[C@@H]4COc4ncccc4F)nc32)cn1` (racemic) [Compound 183, rac-(R)-6-cyano-7-(2-(((3-fluoropyridin-2-yl)oxy)methyl)pyrrolidin-1-yl)-1-(1-methyl-1H-pyrazol-4-yl)-4-oxo-1,4-dihydro-1,8-naphthyridine-3-carboxylic acid]: the IC50 lay in the range of 1000 to 10000 nM.

For the compound `CN(C)C1CN(c2ccc(-n3cc(C(=O)O)c(=O)c4cc(Cl)c(N5CCC[C@@]5(C)COc5ncccc5Cl)nc43)cn2)C1` (racemic) [Compound 186, rac-(R)-6-chloro-7-(2-(((3-chloropyridin-2-yl)oxy)methyl)-2-methyl-pyrrolidin-1-yl)-1-(6-(3-(dimethyl-amino)azetidin-1-yl)pyridin-3-yl)-4-oxo-1,4-dihydro-1,8-naphthyridine-3-carboxylic acid], the IC50 is at most 1000 nM.

In the case of `Cc1ccc(Cl)c(OC[C@H]2CCCN2c2cc3c(cc2Cl)c(=O)c(C(=O)O)cn3-c2ccc(N3CC(N(C)C)C3)nc2)n1` (racemic) [Compound 187, rac-(R)-6-chloro-7-(2-(((3-chloro-6-methylpyridin-2-yl)oxy)methyl)pyrrolidin-1-yl)-1-(6-(3-(dimethyl-amino)azetidin-1-yl)pyridin-3-yl)-4-oxo-1,4-dihydro-quinoline-3-carboxylic acid], the IC50 is at most 1000 nM.

Consider `CN(C)C1CN(c2ccc(-n3cc(C(=O)O)c(=O)c4cc(Cl)c(N5CC(c6cnn(C)c6)C[C@@H]5COc5ncccc5Cl)cc43)cn2)C1` (mixture of isomers) [Compound 188, rac-6-chloro-7-((2R)-2-(((3-chloropyridin-2-yl)oxy)methyl)-4-(1-methyl-1H-pyrazol-4-yl)pyrrolidin-1-yl)-1-(6-(3-(dimethyl-amino)azetidin-1-yl)pyridin-3-yl)-4-oxo-1,4-dihydro-quinoline-3-carboxylic acid], for which the IC50 is at most 1000 nM.

On to `CN(C)C1CN(c2ccc(-n3cc(C(=O)O)c(=O)c4cc(F)c(N5CC(c6ccc(O)nc6)C[C@@H]5COc5ncccc5Cl)cc43)cn2)C1` (mixture of isomers) [Compound 189, rac-7-((2R)-2-(((3-chloropyridin-2-yl)oxy)methyl)-4-(6-hydroxy-pyridin-3-yl)pyrrolidin-1-yl)-1-(6-(3-(dimethyl-amino)azetidin-1-yl)pyridin-3-yl)-6-fluoro-4-oxo-1,4-dihydro-quinoline-3-carboxylic acid], for which the IC50 was at most 1000 nM.

Regarding `Nc1ccc(-n2cc(C(=O)O)c(=O)c3cc(Cl)c(N4CCC[C@@H]4COc4ncccc4Cl)nc32)cn1` (racemic) [Compound 190, rac-(R)-1-(6-aminopyridin-3-yl)-6-chloro-7-(2-(((3-chloropyridin-2-yl)oxy)methyl)pyrrolidin-1-yl)-4-oxo-1,4-dihydro-1,8-naphthyridine-3-carboxylic acid], the half-inhibitory concentration (IC50) was at most 1000 nM.

As for `Cn1cc(-n2cc(C(=O)O)c(=O)c3cc(Cl)c(N4CCC[C@@H]4COc4ncccc4Cl)nc32)cn1` (racemic) [Compound 191, rac-(R)-6-chloro-7-(2-(((3-chloropyridin-2-yl)oxy)methyl)pyrrolidin-1-yl)-1-(1-methyl-1H-pyrazol-4-yl)-4-oxo-1,4-dihydro-1,8-naphthyridine-3-carboxylic acid], the IC50 is at most 1000 nM.

Usually IC50 stands for the concentration needed to halve the response being measured.

The values above are taken from patent US12662491B2 (Redona Therapeutics, Inc., priority 2020, dated 2026).
